Results published in ChEMBL document CHEMBL1201862, “PubChem BioAssay data set” (2004).
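Values below derive from 48-hour exposures of cells grown in 96-well plates, with endpoints linearly interpolated between the two concentrations bracketing the appropriate inhibition level. GI50: concentration for 50% inhibition of growth.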 The source made the active and inactive calls. Cut-off read from the data, not from the text of the source: active = GI50 up to about 1.1 µM and inactive = higher.

Legend:
Assay in all cases: NCI anticancer screen, dose series, 48 h
UO-31 = tested on: UO-31
SK-MEL-28 = tested on: SK-MEL-28
MDA-N = tested on: MDA-N
SNB-19 = tested on: SNB-19
HOP-62 = tested on: HOP-62
T47D = tested on: T47D
MDA-MB-231 = tested on: MDA-MB-231
LOX IMVI = tested on: LOX IMVI
SN12C = tested on: SN12C
NCI-H522 = tested on: NCI-H522
Malme-3M = tested on: Malme-3M
ACHN = tested on: ACHN
EKVX = tested on: EKVX
KM12 = tested on: KM12
SF-295 = tested on: SF-295
RPMI-8226 = tested on: RPMI-8226
UACC-62 = tested on: UACC-62
HOP-92 = tested on: HOP-92
K562 = tested on: K562
Hs-578T = tested on: Hs-578T

| SMILES | GI50 (UO-31) | GI50 (SK-MEL-28) | GI50 (MDA-N) | GI50 (SNB-19) | GI50 (HOP-62) | GI50 (T47D) | GI50 (MDA-MB-231) | GI50 (LOX IMVI) | GI50 (SN12C) | GI50 (NCI-H522) | GI50 (Malme-3M) | GI50 (ACHN) | GI50 (EKVX) | GI50 (KM12) | GI50 (SF-295) | GI50 (RPMI-8226) | GI50 (UACC-62) | GI50 (HOP-92) | GI50 (K562) | GI50 (Hs-578T) |
| --- | --- | --- | --- | --- | --- | --- | --- | --- | --- | --- | --- | --- | --- | --- | --- | --- | --- | --- | --- | --- |
| O=c1[nH]cnc2c1ncn2C1SC(CO)C(O)C1O (stereo not given) | > 100 µM (inactive) | > 100 µM (inactive) | > 100 µM (inactive) | > 100 µM (inactive) | > 100 µM (inactive) | > 100 µM (inactive) | > 100 µM (inactive) | > 100 µM (inactive) | > 100 µM (inactive) | > 100 µM (inactive) | > 100 µM (inactive) | > 100 µM (inactive) | > 100 µM (inactive) | > 100 µM (inactive) | > 100 µM (inactive) | > 100 µM (inactive) | > 100 µM (inactive) | > 100 µM (inactive) | > 100 µM (inactive) | > 100 µM (inactive) |
| O=C(/C=C1\C[C@H]2C=Nc3ccccc3C(=O)N2C1)NCCCNC(=O)/C=C1\C[C@H]2C=Nc3ccccc3C(=O)N2C1 | 14.7 µM (inactive) | 18.9 µM (inactive) | 17.1 µM (inactive) | 16.4 µM (inactive) | 16.6 µM (inactive) | 16 µM (inactive) | 16.1 µM (inactive) | 6.25 µM (inactive) | 18 µM (inactive) | 1.96 µM (inactive) | 15.9 µM (inactive) | 14.9 µM (inactive) | 19.8 µM (inactive) | 16 µM (inactive) | 19 µM (inactive) | 10.1 µM (inactive) | 15.7 µM (inactive) | 20 µM (inactive) | 5.96 µM (inactive) | 32 µM (inactive) |
| CC1C(NNc2ccccc2)Oc2cc3c(cc2C1c1ccccc1O)OCO3 (stereo not given) | 1.59 µM (inactive) | 12.3 µM (inactive) | 4.06 µM (inactive) | 14.3 µM (inactive) | 3.1 µM (inactive) | 2.77 µM (inactive) | 13.4 µM (inactive) | 12.5 µM (inactive) | 5.79 µM (inactive) | 0.575 µM (active) | 3.47 µM (inactive) | 0.962 µM (active) | 10.9 µM (inactive) | 0.741 µM (active) | 0.632 µM (active) | 4.07 µM (inactive) | 1.44 µM (inactive) | 13.5 µM (inactive) | 0.444 µM (active) | 14.3 µM (inactive) |
| O=[As]O | > 100 µM (inactive) | > 59 µM (inactive) | > 100 µM (inactive) | > 67.5 µM (inactive) | > 100 µM (inactive) | > 100 µM (inactive) | > 100 µM (inactive) | > 47.9 µM (inactive) | > 48.4 µM (inactive) | 22.8 µM (inactive) | 25.3 µM (inactive) | > 100 µM (inactive) | > 60 µM (inactive) | > 100 µM (inactive) | > 81.1 µM (inactive) | > 40.5 µM (inactive) | > 39.1 µM (inactive) | > 41.6 µM (inactive) | 37.7 µM (inactive) | > 100 µM (inactive) |
| CC[C@H](C)[C@H]1NC(=O)[C@@H](NC(=O)[C@@H](CC(C)C)N(C)CC2CCCN2C(=O)C(C)=O)[C@@H](C)OC(=O)[C@H](Cc2ccc(OC)cc2)N(C)C(=O)C2CCCN2C(=O)[C@H](CC(C)C)NC(=O)[C@@H](C)C(=O)[C@H](C(C)C)OC(=O)C[C@@H]1O (stereo not given in full) | 0.00893 µM (active) | 0.0049 µM (active) | 0.00508 µM (active) | 0.00356 µM (active) | 0.00361 µM (active) | 0.00344 µM (active) | 0.00432 µM (active) | 0.00291 µM (active) | 0.00545 µM (active) | 0.00564 µM (active) | 0.00681 µM (active) | 0.00444 µM (active) | 0.00379 µM (active) | 0.00302 µM (active) | 0.00371 µM (active) | 0.00313 µM (active) | 0.00294 µM (active) | 0.00403 µM (active) | 0.00531 µM (active) | 0.00405 µM (active) |
| CCc1ccc(/C=C\c2cc(OC)c(OC)c(OC)c2)cc1 | 0.0355 µM (active) | 0.0627 µM (active) | 0.00168 µM (active) | 0.0148 µM (active) | 0.0531 µM (active) | 0.17 µM (active) | 0.144 µM (active) | 0.0132 µM (active) | 0.0159 µM (active) | 0.0118 µM (active) | 0.124 µM (active) | 0.0285 µM (active) | 0.887 µM (active) | 0.0452 µM (active) | 0.00631 µM (active) | 0.0127 µM (active) | 0.0132 µM (active) | 0.00813 µM (active) | 0.00845 µM (active) | 0.00255 µM (active) |
| C[C@]12CCC(=O)C=C1CC[C@@H]1[C@@H]2[C@@H](O)C[C@@]2(C)[C@H]1CC[C@]2(O)C(=O)CO [HYDROCORTISONE] | > 100 µM (inactive) | > 100 µM (inactive) | > 100 µM (inactive) | > 100 µM (inactive) | > 100 µM (inactive) | > 100 µM (inactive) | > 100 µM (inactive) | > 100 µM (inactive) | 31.8 µM (inactive) | > 100 µM (inactive) | > 100 µM (inactive) | > 100 µM (inactive) | > 82.4 µM (inactive) | > 100 µM (inactive) | > 100 µM (inactive) | 0.34 µM (active) | > 100 µM (inactive) | > 100 µM (inactive) | > 100 µM (inactive) | > 100 µM (inactive) |
| C=C(C)[C@H]1Cc2c(ccc3c2O[C@@H]2COc4cc(OC)c(OC)cc4[C@@H]2C3=O)O1 [ROTENONE] | 0.131 µM (active) | 0.162 µM (active) | 0.0423 µM (active) | 0.327 µM (active) | 0.168 µM (active) | 0.0989 µM (active) | 1.02 µM (active) | 0.0624 µM (active) | 0.404 µM (active) | 0.0247 µM (active) | 0.0762 µM (active) | 0.0522 µM (active) | 0.736 µM (active) | 0.0897 µM (active) | 0.0399 µM (active) | 0.0575 µM (active) | 0.0597 µM (active) | 0.116 µM (active) | 0.0929 µM (active) | 0.0785 µM (active) |
